# US20100209934A1, “METHOD OF IDENTIFYING AGENTS WHICH MODULATE THE ACTIVITY OF CALCIUM-ACTIVATED CHLORIDE CHANNEL” (SNU R&DB FOUNDATION, priority 2007, published 2010)
# Like-named read-outs stand apart in the source and are kept apart here.
# What was measured:
# mANO1 [1] = experiment: FLIPR membrane potential (voltage-sensing fluorescence) assay in mANO1-stably expressing HEK cells; assay type: cell-based, mouse; details: for membrane potential change detected by fluorescent intensity: 100 μM ATP or 10 μM A23187, mANO1-stably expressing HEK cells, not seen in control HEK cells
# Protocol: The activity of the ANO1-stable cell line was characterized with a FLIPR® Membrane Potential assay kit (Molecular devices, Sunnyvale, Calif.) according to the manufacture's instructions. ANO1-stable cell lines were seeded into poly-D-lysine coated 96-well plates (50,000 cells/each well). One day after the plating, the cells were incubated with 50 μl Hank's balanced salt solution (HBSS) containing membrane potential dye for 40 min at 37° C. To test the activity of ANO1 stable cell line, 100·μM ATP or 10·μM A23187 (Sigma, St Louis, Mo., USA) was added to each well for 20 sec after starting detection. The fluorescence intensity was measured by a fluorometric imaging plate reader (FlexStation™ II, MolecularDevices). Membrane potential dye was excited at 530 nm, and the intensity of fluorescence emitted at 565 nm was measured.
# To determine if ANO1 is applicable for high-throughput screening (HTS) analysis, we constructed a stable cell line that constitutively expresses mANO1 (Reference example 7). The mANO1 stable cell line was grown in wells of a 96-well plate. mANO1-stably expressing HEK cells were incubated with a voltage sensor fluorescent dye (FLIPR®-membrane potential assay kit, Molecular Device) to detect change in membrane potential when ANO1 is activated. When ANO1 is activated, Cl^− would flux out the cell to depolarize the membrane, which makes the fluorescence dye fluoresce. After wash out the fluorescent dye, 100 μM ATP was applied. […] Fluorescent intensity was detected at excitation 530 nm and emission 565 nm by FlexStation 2 (Molecular device). […] F/F0: ratio of fluorescence intensity. Pretreatment of 2APB, a known blocker of IP3 receptor, blocked the ATP induced-membrane potential change in ANO1-stably expressing HEK cells (FIG. 13C).
# mANO1 [2] = experiment: Whole-cell current response to GPCR stimulation in HEK 293T cells co-transfected with mANO1 and a GPCR; assay type: cell-based, mouse
# Protocol: HEK 293T cells were transfected with pEGFP-N1 (control) (1.0 μg) or pEGFP-N-1-mANO1 (0.8˜1.0 μg) and/or any one of the GPCR cDNAs (1.0 μg) obtained in Reference Example 2, using a FuGENE® HD transfection reagent (Roche Diagnostics, Penzberg, Germany). Transfected cells were maintained in DMEM supplemented with heat inactivated 10% fetal bovine serum (GIBCO BRL, Rockville, Md.) and penicillin-streptomycin at 37 in a 5% CO2 humidified atmosphere. One or two days after transfection, transfected cells were used for biochemical and electrophysiological experiments.
# (§1) To form gigaseals, individual cell surfaces were touched with a ˜3 Mohm Sylgard-coated glass pipette with gentle suction, and the junction potential was then adjusted to 0 mV. The membrane in contact with the pipette was then ruptured by suction to form a whole cell. The pipette solution contained 140 mM NMDG-Cl, 2 mM MgCl2, 10 mM HEPES, 2 mM ATP, and 0.3 mM GTP adjusted to pH 7.2, and the bath solution contained 140 mM NMDG-Cl, 2 mM MgCl2 and 10 mM HEPES (pH 7.2). For ion selectivity experiments, 140 mM NMDG-Cl was replaced with equimolar NaCl, NaL NaBr, NaNO3, NaF, or Na-gluconate in the bath solution. To determine current-voltage relationships, voltage ramps from −80 or −100 mV to +80 or +100 mV were delivered for 350 ms, or voltage-pulses from −100 mV to +100 mV were delivered for 400 ms to whole cells. When mANO1 was activated by 300 nM intracellular Ca^2+, voltage-pulses of 2500 ms were delivered. Whole-cell currents were amplified using an Axopatch 200B amplifier (Molecular Device, Sunnyvale, Calif.) and stored in a personal computer after digitization by a Digidata 1440 (Molecular Device). For single-channel current recordings, cell-attached or inside-out patches were formed from gigaseals. The pipette and control bath solution contained 140 mM NMDG-Cl, 2 mM MgCl2 and 10 mM HEPES (pH 7.2). […] To create amplitude histograms, pClamp software (version 6.0, Molecular Device) was used to analyze open and closed single-channel current events. The half-amplitude algorithm was used to determine an open event. The minimum duration of an open event was set at 0.1 ms.
# Under physiological conditions CaCCs are known to be activated by GPCR stimulation. Endothelin-1 is a powerful vasoconstrictor that depolarizes vascular smooth muscle by activating CaCCs (Klockner, U. & Isenberg, G., Pflugers Arch. 418, 168-75 (1991); and Salter, K. J. & Kozlowski, R. Z., J Pharmacol Exp Ther. 279, 1053-62 (1996)). Thus, mANO1 and endothelin receptor subtype A (ETAR) were transfected into HEK 293T cells, along with GFP for visual identification of transfected cells, in accordance with the method of Reference Example 5. Whole cells were used to test the current response of mANO1 to ETAR stimulation. Pipette and bath solutions contained 140 mM N-methyl D-glucamine (NMDG)-Cl, which permitted Cl^− to be used as the main charge carrier. The pipette solution was Ca^2+ free and contained no EGTA. […] In contrast, endothelin-1 evoked currents were minimal in HEK cells transfected with ETAR or control (GFP-transfected only) cells. When mANO1 was transfected alone, 50 nM endothelin-1 evoked appreciable currents; presumably because of the presence of endogenous endothelin receptors in HEK cells.
# hANO1 = experiment: Current recording in hANO1/ETAR-HEK cells; assay type: cell-based, human; details: 50 nM endothelin-1
# Description: The hANO1 (human TMEM16A; NM_018043, GI: 40354209) was cloned from human trachea total RNAs (Clontech, Palo Alto, Calif.) by PCR method using following primers; forward primer 5′-CTCGAGGCCACCATGAGGGTCAACGAGAAGTACTC-3′ (SEQ ID NO: 8) and reverse primer 5′-GGTACCCTACAGGACGCCCCCGTGGTAG-3′ (SEQ ID NO: 9). The PCR product was cut with XhoI and KpnI, and then inserted into XhoI/KpnI site of pSDTF or pEGFP-N1.
# To form gigaseals, individual cell surfaces were touched with a ˜3 Mohm Sylgard-coated glass pipette with gentle suction, and the junction potential was then adjusted to 0 mV. The membrane in contact with the pipette was then ruptured by suction to form a whole cell. The pipette solution contained 140 mM NMDG-Cl, 2 mM MgCl2, 10 mM HEPES, 2 mM ATP, and 0.3 mM GTP adjusted to pH 7.2, and the bath solution contained 140 mM NMDG-Cl, 2 mM MgCl2 and 10 mM HEPES (pH 7.2). For ion selectivity experiments, 140 mM NMDG-Cl was replaced with equimolar NaCl, NaL NaBr, NaNO3, NaF, or Na-gluconate in the bath solution. To determine current-voltage relationships, voltage ramps from −80 or −100 mV to +80 or +100 mV were delivered for 350 ms, or voltage-pulses from −100 mV to +100 mV were delivered for 400 ms to whole cells. When mANO1 was activated by 300 nM intracellular Ca^2+, voltage-pulses of 2500 ms were delivered. […]
# mANO1 [3] = target: T1, mANO1 (Mus musculus, UniProt Q8BHY3, S527P); experiment: Ca2+ activation of macroscopic currents in inside-out patches from ANO1/ETAR-HEK cells; assay type: biochemical; parameters: expressed in transfected cells; details: for EC50: inside-out patches
# T1 sequence (Q8BHY3 1-960 S527P): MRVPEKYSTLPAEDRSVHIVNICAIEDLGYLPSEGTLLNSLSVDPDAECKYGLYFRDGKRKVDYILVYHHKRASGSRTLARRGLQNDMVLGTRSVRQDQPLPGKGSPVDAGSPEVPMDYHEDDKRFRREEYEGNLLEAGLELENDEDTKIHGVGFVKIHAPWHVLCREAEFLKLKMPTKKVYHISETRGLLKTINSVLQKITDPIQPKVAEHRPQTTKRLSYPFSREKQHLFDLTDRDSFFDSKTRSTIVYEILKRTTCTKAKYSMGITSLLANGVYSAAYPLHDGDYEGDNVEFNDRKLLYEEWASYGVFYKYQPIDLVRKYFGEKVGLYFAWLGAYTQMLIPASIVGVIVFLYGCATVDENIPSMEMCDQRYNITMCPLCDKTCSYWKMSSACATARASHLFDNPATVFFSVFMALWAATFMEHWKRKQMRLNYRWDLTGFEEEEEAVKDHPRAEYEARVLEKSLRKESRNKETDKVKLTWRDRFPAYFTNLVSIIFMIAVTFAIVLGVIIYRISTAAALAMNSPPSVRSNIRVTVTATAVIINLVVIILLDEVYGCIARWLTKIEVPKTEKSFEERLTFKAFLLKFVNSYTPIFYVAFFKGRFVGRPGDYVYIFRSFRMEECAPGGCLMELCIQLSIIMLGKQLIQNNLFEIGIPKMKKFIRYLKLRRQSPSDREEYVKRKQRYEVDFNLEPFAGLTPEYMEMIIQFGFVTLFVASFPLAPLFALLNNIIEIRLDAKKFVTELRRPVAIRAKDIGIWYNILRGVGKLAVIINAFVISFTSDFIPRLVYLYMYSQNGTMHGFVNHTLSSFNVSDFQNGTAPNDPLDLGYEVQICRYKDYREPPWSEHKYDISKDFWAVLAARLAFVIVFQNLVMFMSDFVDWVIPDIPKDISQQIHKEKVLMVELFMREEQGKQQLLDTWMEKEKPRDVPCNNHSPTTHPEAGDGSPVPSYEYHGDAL
# Protocol: A. Macroscopic current responses to repeated applications of Ca^2+ in various concentrations to the bath of inside-out patches isolated from mANO1-ETAR/HEK cells at holding potentials of −60 or +60 mV. Pipette and bath solution contained 140 mM NMDG-Cl.
# B. Dose-response relationship of mANO1 activation by Ca^2+. Current responses were normalized versus those observed at 10 μM (−60 mV, n=8) or 3 μM Ca^2+ (+60 mV, n=8). Data points were fitted to the Hill's equation. (Error bars=Mean±S.E.M)
# as §1
# Ca^2+ in various concentrations applied to the bath (intracellular side) evoked macroscopic […] currents in a dose-dependent manner (Ehold=−60 mV) (FIG. 7A). […] The threshold concentration of Ca^2+ reached about 0.3 μM at −60 mV holding potential (FIG. 7B). Remarkably, ANO1 activation by Ca^2+ was voltage-dependent, which is also characteristic of endogenous CaCCs (Nilius, B. et al., Cell Calcium 22, 53-63 (1997), Kuruma, A. & Hartzell, H. C., J Gen Physiol 115, 59-80 (2000), Evans, M. G. & Marty, A., J Physiol 378, 437-60 (1986)). At a depolarized membrane potential (+60 mV), ANO1 was more sensitive to Ca^2+ and the concentration-response curve shifted to the left, resulting in an EC50 of 0.4 μM (FIG. 7B). Hill's coefficients of the concentration-response curves were 2.0 and 2.4 at −60 and +60 mV, respectively.
compound,measurement,setting,value
Nc1ncnc2c1ncn2[C@@H]1O[C@H](COP(=O)(O)OP(=O)(O)OP(=O)(O)O)[C@@H](O)[C@H]1O [ATP],membrane potential change detected by fluorescent intensity,mANO1 [1],evoked robust change in membrane potentials
same,inward currents activated by ATP,"mANO1 [2]; ATP 100 μM, mANO1 co-transfected with P2Y2R in HEK 293T cells, Ehold −60 mV",Large inward currents
CNc1ccc2oc(C[C@H]3O[C@@]4(CC[C@H]3C)O[C@H]([C@H](C)C(=O)c3ccc[nH]3)[C@H](C)C[C@H]4C)nc2c1C(=O)O [A23187],membrane potential change detected by fluorescent intensity,mANO1 [1],evoked membrane potential change
NCCOB(c1ccccc1)c1ccccc1 [2APB],block of ATP induced-membrane potential change,"mANO1 [1]; pretreatment of 2APB, ANO1-stably expressing HEK cells",blocked
endothelin-1 (CSCSSLMDKECVYFCHLDIIW) [powerful vasoconstrictor; ligand of endothelin receptor subtype A (ETAR)],endothelin-1 evoked inward currents,"mANO1 [2]; 50 nM endothelin-1, mANO1-ETAR/HEK cells, whole cell, membrane potential −60 mV",evoked robust inward currents
same,second responses relative to first responses (tachyphylaxis),"mANO1 [2]; 50 nM endothelin-1 applied twice with a 5 min interval, ANO1/ETAR-HEK cells, n=12, no blocker",87.1±11.4%
same,endothelin-1 evoked Cl− currents,hANO1,evoked large Cl^− currents
[Ca+2] [Ca^2+],Hill's coefficient of concentration-response curve,mANO1 [3]; +60 mV,2.4
same,EC50,"mANO1 [3]; depolarized membrane potential +60 mV, read-out: EC50 for ANO1 activation",0.4 µM
same,EC50,"mANO1 [3]; holding potential −60 mV, read-out: half-maximal concentration (EC50) for ANO1 activation",2.6 µM
same,Hill's coefficient of concentration-response curve,mANO1 [3]; −60 mV,2.0
same,threshold concentration for ANO1 activation,mANO1 [3]; −60 mV holding potential,about 0.3 μM
